Experimental data: ChEMBL document CHEMBL1122176, “Synthesis and antitumor activity of 10-alkyl-10-deazaminopterins. A convenient synthesis of 10-deazaminopterin” (J Med Chem, 1982)
Converted amounts (≈) assume the structure as drawn.

Experiments:
[1] = The efflux rate constant of the compound; type: ADME
[2] = Influx velocity of the compound; type: ADME
[3] = molecular target: Dihydrofolate reductase (Lactobacillus casei) (UniProt P00381); test: Concentration required for the 50% growth inhibition of Lactobacillus casei dihydrofolate reductase enzyme; details: Lacticaseibacillus casei
L1210 [4] = test: Minimum inhibitory concentration of compound was tested for growth inhibition of L1210 cells; type: functional; details: Mus musculus
Lacticaseibacillus casei = test: Concentration required for the 50% growth inhibition of Lactobacillus casei ATCC 7469 organism at 1 ng/mL folate concentration; type: functional, organism-based
Enterococcus faecium [5] = test: Concentration required for the 50% growth inhibition of Streptococcus faecium ATCC 8043 organism at 1 ng/mL folate concentration; type: functional, organism-based
Enterococcus faecium [6] = test: Concentration required for the 50% growth inhibition of Streptococcus faecium MTX resist organism at 1 ng/mL folate concentration; type: functional, organism-based
[7] = Michaelis constant of compound was determined from affinity towards carrier component of transport mechanism
L1210 [8] = test: % increase in lifespan was measured at 3 mg/kg dosage after sc administration; details: Mus musculus
L1210 [9] = test: % increase in lifespan was measured at 15 mg/kg dosage after sc administration; details: Mus musculus
L1210 [10] = test: Antitumor activity expressed as mean survival time against L1210 leukemia cells in mice after sc administration at dose 3 mg/kg; details: route subcutaneous
L1210 [11] = test: Antitumor activity expressed as mean survival time against L1210 leukemia cells in mice after sc administration at dose 15 mg/kg; details: route subcutaneous
[12] = Concentration required for the 50% growth inhibition of Streptococcus faecium ATCC 8043 organism at 1 ng/mL folate concentration
Dihydrofolate reductase [13] = molecular target: T1, Dihydrofolate reductase (Mus musculus, UniProt P00375); test: Tested for inhibition of dihydrofolate reductase enzyme from mouse
T1 sequence (P00375 whole entry): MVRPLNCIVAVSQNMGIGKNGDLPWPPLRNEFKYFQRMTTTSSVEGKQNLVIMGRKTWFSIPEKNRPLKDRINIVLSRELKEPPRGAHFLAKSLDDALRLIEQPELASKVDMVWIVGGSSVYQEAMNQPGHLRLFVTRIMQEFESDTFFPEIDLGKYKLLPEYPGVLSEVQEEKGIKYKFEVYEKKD

L1210 [14] = test: Minimum inhibitory concentration of compound was tested for growth inhibition of L1210 cells.; type: functional; details: Mus musculus
Dihydrofolate reductase [15] = molecular target: T1, Dihydrofolate reductase; test: Tested for inhibition of dihydrofolate reductase enzyme

Sequence of Dihydrofolate reductase (Lactobacillus casei) (P00381 whole entry): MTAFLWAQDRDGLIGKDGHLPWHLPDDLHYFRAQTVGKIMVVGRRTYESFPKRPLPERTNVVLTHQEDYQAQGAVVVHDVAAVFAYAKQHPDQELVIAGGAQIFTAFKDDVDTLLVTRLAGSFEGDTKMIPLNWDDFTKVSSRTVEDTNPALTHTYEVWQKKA

Compound | K [1] [min⁻¹] | Vmax [2] [nM/min/g] | IC50 [3] [nM] | MIC50 (L1210 [4]) [nM] | Concentration (Lacticaseibacillus casei) [ng/mL] | Concentration (Enterococcus faecium [5]) [ng/mL] | Concentration (Enterococcus faecium [6]) [ng/mL] | Km [7] [µM] | ILS at 3 mg/kg (L1210 [8]) [%] | ILS at 15 mg/kg (L1210 [9]) [%] | MST (L1210 [10]) [days] | MST (L1210 [11]) [days] | Concentration [12] [ng/mL] | Ki (Dihydrofolate reductase [13]) [pM] | MIC50 (L1210 [14]) [nM] | Ki (Dihydrofolate reductase [15]) [pM]
CCC(Cc1cnc2nc(N)nc(N)c2n1)c1ccc(C(=O)NC(CCC(=O)O)C(=O)O)cc1 (stereo not given) | 0.2 | 7.8 | 27 | 0.55 (≈ 0.257 ng/mL) | 0.08 | 0.37 | 1300 | 0.89 | 170 | 211 | 17.8 | 20.5 | 0.37 | – | – | –
Nc1nc(N)c2nc(CNc3ccc(C(=O)N[C@@H](CCC(=O)O)C(=O)O)cc3)cnc2n1 [AMINOPTERIN] | 0.21 | 7.83 | – | – | – | – | – | 1.21 | – | – | – | – | – | 2.3 | 0.61 (≈ 0.269 ng/mL) | –
CC(C)(Cc1cnc2nc(N)nc(N)c2n1)c1ccc(C(=O)NC(CCC(=O)O)C(=O)O)cc1 (stereo not given) | 0.24 | 8.31 | 27 | 0.58 (≈ 0.271 ng/mL) | 0.04 | 0.25 | > 2000 | 0.93 | 143 | 135 | 16.1 | 15.9 | 0.25 | – | – | 2.6
CN(Cc1cnc2nc(N)nc(N)c2n1)c1ccc(C(=O)N[C@@H](CCC(=O)O)C(=O)O)cc1 [METHOTREXATE] | 0.19 | 7.77 | – | 2.71 (≈ 1.23 ng/mL) | 0.01 | 0.05 | 3500 | 3.42 | 139 | 151 | 15.8 | 16.6 | – | – | – | –
CC(Cc1cnc2nc(N)nc(N)c2n1)c1ccc(C(=O)NC(CCC(=O)O)C(=O)O)cc1 (stereo not given) | 0.23 | 8.02 | 28 | 0.51 (≈ 0.231 ng/mL) | 0.03 | 0.32 | 200 | 1.01 | 181 | 235 | 18.6 | 22.1 | 0.32 | – | – | 2.4
CCC(Cc1cnc2nc(N)nc(N)c2n1)c1ccc(C(=O)O)cc1 (stereo not given) | – | – | 380 | – | 5.4 | 0.9 | 50 | – | – | – | – | – | 0.9 | – | – | –
CC(C)(Cc1cnc2nc(N)nc(N)c2n1)c1ccc(C(=O)O)cc1 | – | – | 440 | – | 3.6 | 0.5 | 40 | – | – | – | – | – | 0.5 | – | – | –
Nc1nc(N)c2nc(CCc3ccc(C(=O)N[C@@H](CCC(=O)O)C(=O)O)cc3)cnc2n1 | 0.23 | 8.13 | – | 0.61 (≈ 0.268 ng/mL) | 0.01 | 0.2 | > 2000 | 0.96 | 162 | 178 | 17.3 | 18.4 | 0.2 | – | – | 2.1
CC(Cc1cnc2nc(N)nc(N)c2n1)c1ccc(C(=O)O)cc1 (stereo not given) | – | – | 420 | – | 5 | 0.72 | 60 | – | – | – | – | – | 0.72 | – | – | –
